Source: article PMC12040169 (PLOS Biology, 2025)
Where “and” joins values, the source holds several entries; their conditions need not be identical. Identical values can stand only once.

What was measured:
[1] = test system: HeLa; settings: bulk resorufin, single well, 28.5 h, 10 µM, Bulk resorufin fluorescence
[2] = in vitro; settings: human, hela cells, % viability

SMILES | % viability [1] | viability at 28.5 h, 10 µM [2] [%]
CCOC(=O)c1c(NS(=O)(=O)c2ccc(NC(C)=O)cc2)sc2c1CCCC2 [CBK004658] | 99.8% | 90.3
Nc1nc(Nc2ccccc2)nc(C(F)(F)F)n1 [CBK004712] | 72% | 89.8
O=[N+]([O-])c1c(-c2cn[nH]c2)n[nH]c1-c1cn[nH]c1 [CBK008388] | 93.4% | 86.2
CC(=O)NC[C@H]1CN(c2ccc(-c3cc4ccccc4n3C(=O)OC(C)(C)C)c(F)c2)C(=O)O1 [CBK011849] | 82.6% | 98.1
O=C(O)Cc1cc(C(=O)/C=C/c2c(Cl)cccc2Cl)ccc1O [CBK013106] | 100% | 99
S=c1[nH]nc(-c2sc3ccccc3c2Cl)[nH]1 [CBK013698] | 90.2% | 96.3
CC(C)c1n[nH]c2c1/C(=N\N)c1ccccc1-2 [CBK017384] | 73.8% | 85.4
CS(=O)(=O)Nc1ccc2[nH]c(=O)c(C(=O)NCc3ccc(Cl)cc3)cc2c1 [CBK017560] | 102% | 97.9
COc1ccc(-n2ccc(=O)c(Cc3c(Cl)cccc3Cl)c2C)cc1 [CBK019186] | 106% | 89.2
CC1=C/C(=C(\C#N)C(N)=O)NC(c2ccccc2O)=N1 [CBK019764] | 95.3% | 111
Cc1nc2ccccc2n1C(=O)c1sc2ccccc2c1Cl [CBK020557] | 115% | 106
O=C(O)/C(SC1=NC2=Nc3ccccc3C2N=N1)=C1/C(=O)Nc2ccccc21 (stereo not drawn) [CBK021943] | 96% | 100
S=C(Nc1ccc(C2=NCCO2)cc1)Nc1ccc(Cl)c(Cl)c1 [CBK022344] | 106% | 90.6
CNC1=NC2CCCCC2O1 (stereo not drawn) [CBK023075F] | 111% | 117
O=C(O)c1c(NS(=O)(=O)c2ccc(Oc3ccccc3)cc2)sc2c1CCCC2 [CBK024820] | 106% | 101
CC(=O)NC(NS(=O)(=O)c1ccccc1)(C(F)(F)F)C(F)(F)F [CBK025820] | 92.5% | 98.4
O=C1CSC(Nc2ccc(Br)cc2)=N1 [CBK026413] | 88.5% | 79.9
O=C(Nc1cncc(OC2CCNCC2)n1)C1CCC1 [CBK026728T] | 94% | 81.9
Cc1sc(NC(=O)C(F)(F)F)c(C(N)=O)c1C [CBK027775] | 94.1% | 99.4
Brc1ccc(CSc2nc[nH]n2)cc1 [CBK027819] | 98.5% | 
Cc1c(NC(=O)OC(C)C)sc(=S)n1C [CBK028089] | 83.7% | 88.9
O=C(CNS(=O)(=O)c1ccc(Br)cc1)N1CCOCC1 [CBK034469] | 87% | 96
CCOc1ccsc1C(=O)NCc1ccc(OC2CCNCC2)cc1 [CBK036355T] | 114% | 106
COc1ccc([C@@]23CC[C@@H](CNS(=O)(=O)c4cccc(Cl)c4)C[C@@H]2N(C)CC3)cc1OC [CBK042202T] | 91.5% | 99.8
CCOC(=O)N1CCC(NS(=O)(=O)c2ccc3ccccc3c2)CC1 [CBK045452] | 93.1% and 96.6% | 92
CCOC(=O)N1CCC(NS(=O)(=O)c2ccc(Oc3ccccc3)cc2)CC1 [CBK045469] | 97.7% | 98.4

SMILES | % viability [1] | viability at 28.5 h, 10 µM [2] [%]
O=C(Nc1ccccc1OC1CCNCC1)C1CCC1 [CBK045901T] | 97.8% | 109
O=C(Nc1ccccc1OC1CCNCC1)C1CCCO1 (stereo not drawn) [CBK045905T] | 110% | 91.1
CC(=O)Nc1ccc(S(=O)(=O)Nc2c(C(=O)N3CCN(C)CC3)[nH]c3ccccc23)cc1 [CBK050044] | 93.9% | 94.9
Cc1nn(C)c(N2CCNCC2)c1NC(=O)c1ccoc1 [CBK050302T] | 108% | 99.7
CN1CCN(S(=O)(=O)c2ccc(C(=O)O)cc2)CC1 [CBK062446] | 109% and 101% | 90.4
Cc1c(S(=O)(=O)NCCN2CCNC2=O)cnn1-c1ccccc1 [CBK062603] | 99.3% | 117
CCCNC(=O)[C@@H]1Cc2c([nH]c3ccccc23)[C@]2(CCN(CCOc3ccccc3)C2)N1 [CBK063172T] | 86% | 101
Cc1nn(C)c(Cl)c1S(=O)(=O)Nc1nc(=O)[nH]cc1F [CBK067568] | 97.9% and 87.2% | 99.1
Cc1csc(NC(=O)c2ccc(S(=O)(=O)N3CCCCC3)cc2)n1 [CBK069735] | 103% | 102
COc1cccc(NC(=O)c2sc3ncn(C)c(=O)c3c2C)c1 [CBK071807] | 82.5% | 99.2
COCCn1cnc2sc(C(=O)NCc3ccccc3OC)c(C)c2c1=O [CBK071862] | 95.1% and 64.7% | 
COc1ccc(C(=O)Nc2nnc(CC(=O)N/N=C/c3ccccc3OC)s2)cc1 [CBK072076] | 101% | 91.8
COc1nccnc1OC1CCNCC1 [CBK073919T] | 86.5% and 97.3% | 100
CCCc1[nH]nc(O)c1CCc1ccc(Cl)cc1Cl [CBK075082] | 109% | 106
Clc1ccc(COc2nccnc2OC2CCN(CC3CC3)CC2)cc1Cl [CBK083123] | 104% | 
CC(=O)n1cc(C2C(=O)NN=C2C)c2ccccc21 (stereo not drawn) [CBK083563] | 82.3% | 102
Nc1c(-c2cccc3cccnc23)cnc2ncccc12 [CBK083682] | 88.7% | 108
Clc1ccc(COc2ccnc(N3CCCN(CCN4CCOCC4)CC3)n2)cc1Cl [CBK083957] | 98.9% | 97.8
Clc1ccc(COc2cncc(OC3CCN(CCN4CCOCC4)C3)n2)cc1Cl (stereo not drawn) [CBK084433] | 100% | 87
CS(=O)(=O)Nc1cc2cccnc2nc1-c1ccc2c(c1)CCO2 [CBK085690] | 102% | 104
COc1cc(F)ccc1-c1nc(NS(C)(=O)=O)cc2ccccc12 [CBK085751] | 105% | 97.2
CC(=O)Nc1ccc(NS(=O)(=O)c2ccc(O)c(C(=O)O)c2)cc1 [CBK092150] | 96.9% | 115
COc1cc(-c2ccc(OC3CCNCC3)cc2)cc(OC)c1OC [CBK093682] | 102% | 99
CC(C)(C)c1cc(C(=O)NCCN2CCCC2)n(Cc2ccc(Cl)cc2Cl)n1 [CBK107290] | 110% | 115
O=C(CSC1=NCCS1)Nc1ccnc2ccccc12 [CBK112077] | 98.9% | 101
O=C(O)c1cc(S(=O)(=O)NCc2ccco2)c(Cl)cc1Cl [CBK113171] | 107% and 83.2% | 

SMILES | % viability [1] | viability at 28.5 h, 10 µM [2] [%]
CN(C)S(=O)(=O)c1cc(C(=O)O)c(Cl)cc1Cl [CBK113173] | 94% | 101
CCOC(=O)c1sc2nccc(Nc3ccccc3)c2c1N [CBK115365] | 91.8% | 90.8
OC1CCn2c1nc1cc(C(F)(F)F)ccc12 (stereo not drawn) [CBK115448] | 70.8% | 80.4
COc1ccc(C2N(CC(N)=O)CCOC23CCN(C(=O)c2ccc4ccccc4c2)CC3)cc1 (stereo not drawn) [CBK115613] | 101% | 96.9
FC(F)(F)c1ccnc(OCCCc2ccncc2)c1 [CBK115786] | 101% | 109
CCCCOC(=O)c1ccc(NC(=O)Nc2ccc3ccc(Cl)nc3n2)cc1 [CBK115932] | 97.1% | 93.8
COc1ccc2[nH]cc(CCNC(=O)Cc3c[nH]c4ccc(O)cc34)c2c1 [CBK116216] | 84.5% | 98.6
Oc1ccc(-c2cncc(-c3ccc(CN4CCOCC4)cc3)n2)cc1 [CBK123787] | 108% | 104
CC(C)c1ccc(CN2CCC(Cc3ccccc3)CC2)cc1 [CBK126378] | 109% | 99.1
Cc1cc(CC(=O)N2CCCC3(CCN(C(=O)c4ccoc4)C3)C2)on1 (stereo not drawn) [CBK131628] | 106% and 82.1% | 
COC(=O)c1ccc(-c2cc3ccccc3o2)nc1 [CBK149228] | 96.5% | 
COc1ccc(CCNC(=O)C2CCCCC2C(=O)O)cc1 (stereo not drawn) [CBK262636] | 86.3% and 110% | 
O=C(O)c1ccc(CNCc2c(F)cccc2Cl)cc1 [CBK269496C] | 111% | 
O=C(O)c1ccc(CNCc2c(F)cccc2Cl)cc1 [CBK269496] | 82.3% | 
O=C(O)c1cccc(S(=O)(=O)N2CCN(C(=O)c3ccccc3)CC2)c1 [CBK275920] | 113% and 91.5% and 99.3% | 
O=C(CN1C(=O)[C@H]2CCCN2C(=O)c2ccccc21)NC1CC1 [CBK282436] | 122% and 91.3% | 
CC(C)NC(=O)CN1C(=O)[C@H]2CCCN2C(=O)c2ccccc21 [CBK282437] | 112% and 88.6% | 
C[C@@H]1CN(Cc2ccco2)CCN1C(=O)Cc1ccccc1F [CBK284257] | 83.4% and 106% | 
O=C(NC[C@H]1CCCN(C(=O)c2ccccn2)C1)c1cccs1 [CBK284262] | 105% and 83.9% | 
O=C(NC1CC1)[C@@H]1C=CCN1C(=O)c1ccc(F)cc1F [CBK284279] | 80.5% and 104% | 
Cc1cc(NC(=O)c2ccc(Br)o2)nc2c1c(=O)oc1ccccc12 [CBK287440] | 85.8% and 119% | 
COc1ccc(C(=O)Nc2nc3nc(C)cc(C)c3s2)cc1 [CBK287755] | 105% and 83% | 
Oc1ccc(Nc2ncnc3c2oc2ccccc23)cc1 [CBK287967] | 92.3% and 113% | 
O=c1[nH][nH]c2c1cnc1c(C(F)(F)F)cccc12 [CBK287996] | 113% and 84.4% | 
O=c1[nH]nc(COc2ccc(Br)cc2)o1 [CBK288526] | 110% and 86.7% | 
Cc1c(C(=O)O)sc2nc(SCC(=O)NCc3ccccc3)[nH]c(=O)c12 [CBK301214K] | 107% | 
